The text below walks through data of patent US11040949B2, “Compounds affecting pigment production and methods for treatment of bacterial diseases” (Versitech Limited, priority 2017, dated 2021).

By solubility is commonly meant how much of the substance goes into solution per volume. Broadly, the IC50 is the midpoint of a concentration-inhibition curve.

One series relates to S. aureus USA300. Put plainly: In vitro staphyloxanthin production inhibition by NP-16 analogues. The series is classed as cell-based, Staphylococcus aureus. The note with it: S. aureus USA300, methanol extract OD 450 nm, 300 nM to 700 nM. The procedure, abridged: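 S. aureus USA300 grown in BHI with compound (300 nM to 700 nM) or DMSO control at 37 °C, 250 rpm for 36-48 h. Cells were PBS-washed, staphyloxanthin extracted with methanol, and absorbance at 450 nm measured. Inhibition expressed relative to NP-16.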

A short description of series [1]: Solubility in simulated gastric and intestinal fluids. The series is classed as physicochemical. An excerpt:
The following table (Table 4) illustrates the solubility of two different compounds, NP16-XL-016 (hereinafter as “IM032”) and NP16-XL-061 (hereinafter as “IM032-C”), in two solutions with different pH values simulating the pH of gastric juice and human intestinal fluid using HCl and phosphate buffer respectively.

Series [2] relates to 10 different Staphylococcus aureus (S. aureus) strains. The series is described as follows: IM032 staphyloxanthin production inhibition, all tested strains. It is filed as cell-based. The method, then: This study aimed to evaluate IM032 for its in vitro efficacy to inhibit the production of staphyloxanthin in different strains of S. aureus.
Compound IM032 was evaluated for its in vitro efficacy to inhibit staphyloxanthin production in 10 different Staphylococcus aureus (S. aureus) strains, SH1000, HG003, ATCC29213, ATCC700698, COL, JE2, LAC, USA300-3, Newman and ST239III.
The negative control was dimethyl sulfoxide (DMSO) which was used to prepare stock solutions and dilutions; positive control in this test was S. aureus strain FPR3757 treated with IM032.
The test item was dissolved at 44.9 mg/mL in DMSO at 37° C., aliquoted into several tubes, and stored at −20° C. until use. On the day of testing, a stock solution was serially diluted to testing concentrations with DMSO. […]
Each test item solution (6 μL) was combined with 0.6 mL of S. aureus culture in brain heart infusion broth (CFU per well=1×10^7). […] After centrifugation, 100 μL of supernatant was transferred to a 96-well cell culture plate and OD450 was measured. The relative pigment production at each tested concentration was calculated as follows: […]
The IC50 for each test was determined based on the calculated inhibition ratio from above with Prism 6.0 by employing a non-linear regression (four parameters) fitting method with assigned bottom and top at 0.05 and 0.95 respectively. […]

Molecules are shown by their SMILES. Read-outs that look alike come from different tables or passages of the source. A value given as a limit tells only on which side of the number the result lay.

On to `O=C(/C=C/c1ccccc1Br)Nc1ccc(S(=O)(=O)N2CCCCC2)cc1` [NP16-XL-016, 3-(6-bromophenyl)-N-[4-(1-piperidine-1-sulfonyl)phenyl]-acrylamide], for which the “Relative ratio to NP16 based on inhibition ratio” value in the series with S. aureus USA300 was 2.71. For the same compound, the solubility in series [1] (0.1N HCl + 0.1% Tween 80 (simulated gastric fluid), pH 2, aqueous with cosolvent or surfactant or cyclodextrin, read-out: Solubility in pH 2 (0.1N HCl + 0.1% Tween 80)-simulating human stomach) was 2.03 µg/mL; in series [1] (pH 7.4, aqueous with cosolvent or surfactant or cyclodextrin, read-out: Solubility in pH 7.4 (KH2PO4 + 0.1% Tween 80)-simulating human intestine) it was 1.74 µg/mL. The “solubility higher than that of IM032-Cl” value in series [1] (two biorelevant media, pH 2 and pH 7.4) is recorded as > 20 ×. In addition, the IC50 in series [2] (Staphylococcus aureus, all 10 tested strains, read-out: IC50 of staphyloxanthin production inhibition, range over tested strains) was in the range of 1.2 to 70 nM. In series [2] (any concentration of IM032, up to 4,000 nM), the “bactericidal effect (reduction in optical density)” value is on record as “A clear bactericidal effect as evidenced by a reduction in optical density was not observed”.
